Test results reported in paper PMC13439108, “An antibody–drug conjugate active against antibiotic-resistant Neisseria gonorrhoeae” (Proceedings of the National Academy of Sciences of the …, 2026).
Values after ≈ are worked out from the molar mass of the structure shown. Like-named read-outs stand apart in the source and are kept apart here. Where a SMILES comes first, the peptide text is derived from it. [ ]: non-standard residue; d: D form. The star is where a group is joined. d(aIle) = CC[C@H](C)[C@@H](N)C(=O)O; dDab = NCC[C@@H](N)C(=O)O; Octanoyl = CCCCCCCC(=O)*; Dab = NCC[C@H](N)C(=O)O; AEEA = NCCOCCOCC(=O)O

Experiments:
N. gonorrhoeae FA1090 [1] = settings: microdilution in FB, ~5 × 10^4 CFU, 24 hr, 37°C, 5% CO2
Protocol: (§1) columns (ThermoFisher scientific). Activated mAb was added to 0.9 mg of Oct-TriA1 analogues (synthesised by ISCA Biochemicals, UK) and incubated at room temperature for 60 min. ADCs were dialysed using slide-A-Lyzer cassette (20K MWCO, ThermoFisher scientific) into PBS overnight at 4 °C […]
(§2) MALDI-TOF MS analysis for determination of intact mass mAbs or ADCs with a concentration of 1 mg/mL were acidified with 1% trifluoroacetic acid and mixed with Super DHB matrix, 1 μl was spotted onto an MTP Anchorchip 600/384. For every mAb, three sample spots were prepared from the same solution using three protocols advised by the manufacturer. MALDI-TOF measurements were performed on a Microflex LRF mass spectrometer, equipped with a 60Hz nitrogen laser at 337nm. Number of peptides conjugated was calculated using the MALDI-TOF molecular weights (MW) [MW = M+] of each ADC, the unconjugated antibody (mAb), and the molecular weights of Oct-TriA1 analogues using the following equation.
(§3) Number of peptides = MW ADC − MW mAb […]
(§4) Determination of Oct-TriA1 Minimum Inhibitory Concentration (MIC)
(§5) N. gonorrhoeae was resuspended in PBS to an ODA600 1.0, and ̴5 × 10^4 CFU added to wells of a microdilution plate containing dilutions of antimicrobials in FB. Plates were incubated for 24 hr at […]
(§6) 37°C, in 5% CO2 then 10 μl aliquots plated onto GCB agar. The MIC was defined as the lowest concentration of an antimicrobial that prevented bacterial growth. […]
(§7) Peptide concentration in ADC preparations
(§8) Peptide concentrations for ADCs were calculated from the antibody concentration, the drug-to-antibody ratio (DAR), and the peptide molecular weight using the following formula:
(§9) Conc. peptide (µg/mL) = Conc. ADC (µg/mL) × DAR x MWpeptide (Da) […]
(§10) Where Conc. ADC is the ADC/ mAb concentration, MWADC is the mAb molecular weight (150 kDa), MWpeptide is the peptide molecular weight and DAR is the average number of peptides per conjugate.
(§11) This formula was used to convert ADC concentrations to peptide concentrations for all assays. […]

[2] = system: N. gonorrhoeae FA1090ΔIgAP; settings: microdilution in FB, ~5 × 10^4 CFU, 24 hr, 37°C, 5% CO2
Protocol: as §1, §2, §3, §4, §5, §6, §7, §8, §9, §10, §11

[3] = system: N. gonorrhoeae FA1090ΔmtrE; settings: microdilution in FB, ~5 × 10^4 CFU, 24 hr, 37°C, 5% CO2
Protocol: as §1, §2, §3, §4, §5, §6, §7, §8, §9, §10, §11

N. gonorrhoeae MS11 = settings: microdilution in FB, ~5 × 10^4 CFU, 24 hr, 37°C, 5% CO2
Protocol: as §1, §2, §3, §4, §5, §6, §7, §8, §9, §10, §11

N. gonorrhoeae MS11ΔIgAP = settings: microdilution in FB, ~5 × 10^4 CFU, 24 hr, 37°C, 5% CO2
Protocol: as §1, §2, §3, §4, §5, §6, §7, §8, §9, §10, §11

N. gonorrhoeae MS11ΔmtrE = settings: microdilution in FB, ~5 × 10^4 CFU, 24 hr, 37°C, 5% CO2
Protocol: as §1, §2, §3, §4, §5, §6, §7, §8, §9, §10, §11

N. gonorrhoeae WHO F = settings: microdilution in FB, ~5 × 10^4 CFU, 24 hr, 37°C, 5% CO2, lowest concentration preventing growth
Protocol: as §1, §2, §3, §4, §5, §6, §7, §8, §9, §10, §11

N. gonorrhoeae WHO G = settings: microdilution in FB, ~5 × 10^4 CFU, 24 hr, 37°C, 5% CO2
Protocol: as §1, §2, §3, §4, §5, §6, §7, §8, §9, §10, §11

N. gonorrhoeae WHO K = settings: microdilution in FB, ~5 × 10^4 CFU, 24 hr, 37°C, 5% CO2
Protocol: as §1, §2, §3, §4, §5, §6, §7, §8, §9, §10, §11

N. gonorrhoeae WHO L = settings: microdilution in FB, ~5 × 10^4 CFU, 24 hr, 37°C, 5% CO2
Protocol: as §1, §2, §3, §4, §5, §6, §7, §8, §9, §10, §11

N. gonorrhoeae WHO M = settings: microdilution in FB, ~5 × 10^4 CFU, 24 hr, 37°C, 5% CO2
Protocol: as §1, §2, §3, §4, §5, §6, §7, §8, §9, §10, §11

N. gonorrhoeae WHO N = settings: microdilution in FB, ~5 × 10^4 CFU, 24 hr, 37°C, 5% CO2
Protocol: as §1, §2, §3, §4, §5, §6, §7, §8, §9, §10, §11

N. gonorrhoeae WHO O = settings: microdilution in FB, ~5 × 10^4 CFU, 24 hr, 37°C, 5% CO2
Protocol: as §1, §2, §3, §4, §5, §6, §7, §8, §9, §10, §11

N. gonorrhoeae WHO P = settings: microdilution in FB, ~5 × 10^4 CFU, 24 hr, 37°C, 5% CO2
Protocol: as §1, §2, §3, §4, §5, §6, §7, §8, §9, §10, §11

[4] = system: N. gonorrhoeae G97687 (MDR isolate); settings: G97687, MDR isolate resistant to ESCs and azithromycin, microdilution in FB, 24 hr, 37°C, 5% CO2
Protocol: as §4, §5, §6, §7, §8, §9, §10, §11

human erythrocytes = test: Hemolysis of human erythrocytes; format: cell-based; settings: concentration of peptide or ADC that lyses 50% of erythrocytes; washed human blood 0.5%, 37°C, 1 hr, OD415; melittin 2.5 µM = 100%, PBS = 0%; n = 3
Protocol: For hemolysis, whole human blood (1 ml; K2EDTA; Cambridge Bioscience) was washed in PBS then 0.5% added to an equal volume of peptides or ADCs in 96-well V-bottomed polypropylene plates and incubated at 37°C for 1 hr. Cells were pelleted at 1,000 × g for 10 min and the absorbance at OD415 measured. Positive (melittin, 2.5 µM, Merck Life Science) and negative (PBS) controls were normalised as 100 and 0% hemolysis, respectively. […]

HK-2 cells [5] = test: LDH release cytotoxicity; format: cell-based, human; settings: n = 3; for LDH (EC50) 4 h: 2 × 10^4 cells/well, LDH release OD490, 4 h
Protocol: HK-2 cells (CRL-2190™, Americab Type Culutre Collection (ATCC)), a proximal renal tubule cell(7), and End1/E6E7 (CRL-2615™, ATCC) upper cervical epithelial cells(8) were cultured in Keratinocyte Serum Free Medium (Invitrogen, Life Technologies Ltd.) with human recombinant EGF (5 ng ml-1) and bovine pituitary extract (0.05 mg ml−1) at 37°C in 5% CO2. Cells were seeded in 96-well plates (Corning, Polystyrene) at a density of 2 × 10^4 cells/well 24 hr prior; Triton-X-100 (0.1%) and Digitonin (30 μg ml−1) were used as controls. Lactate dehydrogenase (LDH) release was measured using the Biovision kit; the OD490 was assessed in a SpectraMax M5 plate reader. […]

HK-2 cells [6] = test: MTT cell viability; format: cell-based, human; settings: n = 3; for MTT (EC50) 4 h: MTT reduction OD570, 4 h
Protocol: HK-2 cells (CRL-2190™, Americab Type Culutre Collection (ATCC)), a proximal renal tubule cell(7), and End1/E6E7 (CRL-2615™, ATCC) upper cervical epithelial cells(8) were cultured in Keratinocyte Serum Free Medium (Invitrogen, Life Technologies Ltd.) with human recombinant EGF (5 ng ml-1) and bovine pituitary extract (0.05 mg ml−1) at 37°C in 5% CO2. […]
Cell viability was assessed by 3-(4,5-dimethylthiazol-2-yl)-2,5-diphenyl-2H-tetrazolium bromide (MTT) assay(9); 200 µl fresh cell media and 250 µg of MTT was added to cells. Plates were Incubated at 37 °C, 5% CO2 for 3 hr then 200 µl of DMSO was added to wells with 25 µl glycine buffer (0.1 M glycine, 0.1 M NaCl pH 10.5) and shaken at 1000 r.p.m. for 10 min. Absorbance was read at OD570 nm. Cell viability was calculated as (sample absorbance – cell free blank/media control absorbance) x100.

N. gonorrhoeae FA1090 [7] = test: microbe, parasite or virus in culture; settings: Neisseria gonorrhoeae
Protocol: 37°C, in 5% CO2 then 10 μl aliquots plated onto GCB agar. The MIC was defined as the lowest concentration of an antimicrobial that prevented bacterial growth.
Determination of N. gonorrhoeae resistance to Oct-TriA1
Single colonies of N. gonorrhoeae FA1090 were inoculated into 2 mL of FB media supplemented with 1% Vitox (Oxoid) and grown overnight. After 24 hours, 240 µl of a 1/ 5,000 dilution of FA1090 in 2x FB was added to a 48-well plate containing 2-fold dilutions of either Oct-TriA1-c (final concentration, 12.5 µg/ml to 0.2 µg/ml) or ciprofloxacin (final concentration, 16.4 to 0.001 µg/ml) in a total volume of 480
µl. Plates were incubated at 37 °C, 5% CO2 with shaking (180 rpm). After 24 hours, ODA600 of each well […]
to fresh media containing all concentrations of antimicrobials for a total of 35 days. […]

CCCCCCCC(=O)N[C@@H](C(=O)N[C@H](CCN)C(=O)NCC(=O)N[C@H](CO)C(=O)N[C@H](Cc1c[nH]c2ccccc12)C(=O)N[C@@H](CO)C(=O)N[C@@H](CCN)C(=O)N[C@H](CCN)C(=O)N[C@@H](Cc1ccccc1)C(=O)N[C@@H](CCC(=O)O)C(=O)N[C@H](C(=O)N[C@@H](C(=O)N[C@@H](C)C(=O)O)[C@@H](C)CC)C(C)C)C(C)C [Oct-TriA1, reference compound]
MIC (N. gonorrhoeae FA1090 [1]): 0.2 µg/mL (≈ 0.132 µM) | MIC [2]: 0.1 µg/mL (≈ 0.0658 µM) | MIC [3]: 0.1 µg/mL (≈ 0.0658 µM) | MIC (N. gonorrhoeae MS11): 0.78 µg/mL (≈ 0.513 µM) | MIC (N. gonorrhoeae MS11ΔIgAP): 0.39 µg/mL (≈ 0.256 µM) | MIC (N. gonorrhoeae MS11ΔmtrE): 0.2 µg/mL (≈ 0.132 µM) | MIC (N. gonorrhoeae WHO F): 0.2 µg/mL (≈ 0.132 µM) | MIC (N. gonorrhoeae WHO G): 0.39 µg/mL (≈ 0.256 µM) | MIC (N. gonorrhoeae WHO K): 0.78 µg/mL (≈ 0.513 µM) | MIC (N. gonorrhoeae WHO L): 0.2 µg/mL (≈ 0.132 µM) | MIC (N. gonorrhoeae WHO M): 0.39 µg/mL (≈ 0.256 µM) | MIC (N. gonorrhoeae WHO N): 0.39 µg/mL (≈ 0.256 µM) | MIC (N. gonorrhoeae WHO O): 0.39 µg/mL (≈ 0.256 µM) | MIC (N. gonorrhoeae WHO P): 0.39 µg/mL (≈ 0.256 µM) | MIC [4]: 0.2 µg/mL (≈ 0.132 µM) | MIC ([4]; listed as Oct-Tri1): 0.78 µg/mL (≈ 0.513 µM) | Hemolysis (HC50) (human erythrocytes): 39.4 µg/mL | LDH (EC50) 4 h (HK-2 cells [5]): 23.19 µg/mL | LDH (EC50) 24 h (HK-2 cells [5]; LDH release OD490, 24 h): 14.14 µg/mL | LDH (EC50) 48 h (HK-2 cells [5]; LDH release OD490, 48 h): <0.1 µg/mL | MTT (EC50) 4 h (HK-2 cells [6]): 21.15 µg/mL | MTT (EC50) 24 h (HK-2 cells [6]; MTT reduction OD570, 24 h): 7.93 µg/mL | MTT (EC50) 48 h (HK-2 cells [6]; MTT reduction OD570, 48 h): 8.07 µg/mL

O=C(O)c1cn(C2CC2)c2cc(N3CCNCC3)c(F)cc2c1=O [ciprofloxacin, reference compound]
MIC (N. gonorrhoeae FA1090 [7]; FA1090, 24 h, read-out: MIC at start of resistance evolution): 0.002 µg/mL (≈ 0.00604 µM) | MIC (N. gonorrhoeae FA1090 [7]; FA1090, read-out: MIC after 35 d of resistance evolution): 0.26 µg/mL (≈ 0.785 µM)

CCCCCCCC(=O)N[C@@H](C(=O)N[C@H](CCN)C(=O)NCC(=O)N[C@H](CO)C(=O)N[C@H](Cc1c[nH]c2ccccc12)C(=O)N[C@@H](CO)C(=O)N[C@@H](CCN)C(=O)N[C@H](CCN)C(=O)N[C@@H](Cc1ccccc1)C(=O)N[C@@H](CCC(=O)O)C(=O)N[C@H](C(=O)N[C@@H](C(=O)N[C@@H](C)C(=O)NCCOCCOCC(=O)N[C@@H](CC(C)C)C(=O)N1CCC[C@H]1C(=O)N[C@@H](CCCNC(=N)N)C(=O)N1CCC[C@H]1C(=O)N1CCC[C@H]1C(=O)N[C@@H](C)C(=O)N1CCC[C@H]1C(=O)N[C@H](C(=O)N[C@@H](Cc1ccccc1)C(=O)N[C@@H](CO)C(=O)NCCOCCOCC(=O)N[C@@H](CS)C(N)=O)C(C)C)[C@@H](C)CC)C(C)C)C(C)C [cl-Oct-TriA1] (Octanoyl-[dV][dDab]G[dS][dW]S[Dab][dDab]FEV[d(aIle)]A[AEEA]LPRPPAPVFS[AEEA]C-NH2)
LDH (EC50) 4 h (HK-2 cells [5]): >400 µg/mL | MTT (EC50) 4 h (HK-2 cells [6]): 315.43 µg/mL
